From patent US20070082920A1, “NAD+-dependent DNA ligase inhibitors” (priority 2005, published 2007) come the findings set out here.

The target in series [1] is DNA ligase enzyme (NAD+-dependent DNA ligase) (Streptococcus pneumoniae serotype 4, UniProt Q97QT2). Put plainly: DNA ligase AMP release assay (luciferase readout). The class given is biochemical. Conditions: purified enzyme from S. pneumoniae. The protocol: Activity against DNA ligase enzyme was measured using purified enzyme from S. pneumoniae. An AMP release assay was used to assess activity of compounds against the enzyme. AMP, released as a result of the ligation of oligonucleotides, is converted to ATP, which is then measured using luciferase enzyme. The concentration of compound which inhibited 50% of the ligation activity of the enzyme (IC50) was determined.

For series [2], the system named is Staphylococcus aureus ATCC 29213. Briefly: MIC, broth microdilution (CLSI), S. aureus. The class given is cell-based. Conditions: lowest concentration inhibiting visual growth. The protocol:
(§1) The compounds of Formulas 1-VIII were evaluated as inhibitors of NAD+-dependent DNA ligase inhibitors. Their antimicrobial activity was evaluated against bacteria using the broth microdilution method as described by Clinical Laboratory Standards Institute (formerly NCCLS). Activity was assessed against the following bacterial strains: Staphylococcus aureus ATCC 29213, Streptococcus pneumoniae ATCC 49619, Escherichia coli ATCC 25922, E. coli CGSC 5633 (ToIC mutant), Haemophilus influenzae ATCC 49766, Streptococcus pyogenes ATCC 19615, Moraxella catterhalis ATCC 25238, Enterococcus faecalis ATCC 29212. The lowest concentration of compound which inhibited visual growth of each bacterium, the minimum inhibitory concentration (MIC), was determined.
In general terms: Dilution methods test growth across graded concentrations, often in twofold steps.

Series [3] has as its system Enterococcus faecalis ATCC 29212. Put plainly: MIC, broth microdilution (CLSI), E. faecalis. The arrangement: unit not given here. It counts as cell-based. The protocol: as §1
In series [4] the test system is Streptococcus pyogenes ATCC 19615. Put plainly: MIC, broth microdilution (CLSI), S. pyogenes. It counts as cell-based. The protocol:
as §1

Series [5] has as its system Moraxella catterhalis ATCC 25238. Put plainly: MIC, broth microdilution (CLSI), M. catarrhalis. It counts as cell-based. The protocol:
as §1

Series [6] is described as follows: Acute toxicity, Alamar blue cell viability, HepG2. The class given is cell-based. Conditions: human. The protocol:
(§2) Acute toxicity was assessed against two mammalian cell lines, HepG2 (human hepatocyte) and NIH 3T3 (mouse fibroblast). Cell viability was measured by an in vitro assay using Alamar blue. The concentration of compound which inhibited 50% of the cell growth (LC50) was determined.
For orientation: Alamar Blue is a resazurin reagent that responds to reducing activity.

Series [7] can be described thus: Acute toxicity, Alamar blue cell viability, NIH 3T3. It counts as cell-based. The following applies: mouse. The protocol:
as §2

For series [8], the system named is Escherichia coli ATCC 25922. Put plainly: MIC, broth microdilution (CLSI), E. coli ATCC 25922. The class given is cell-based. The protocol:
as §1

Series [9] relates to Streptococcus pneumoniae ATCC 49619. Briefly: MIC, broth microdilution (CLSI), S. pneumoniae. It counts as cell-based. The protocol: as §1
The subject of series [10] is E. coli CGSC 5633 (ToIC mutant). Put plainly: MIC, broth microdilution (CLSI), E. coli CGSC 5633. The class given is cell-based, Escherichia coli. The arrangement: unit not given beside the values. The protocol:
as §1

Series [11] relates to Haemophilus influenzae ATCC 49766. Put plainly: MIC, broth microdilution (CLSI), H. influenzae. The arrangement: unit not given beside the values. The class given is cell-based. The protocol:
as §1

The structures appear in SMILES notation. pIC50: −log10 of the molar value.

Sequence of DNA ligase enzyme (NAD+-dependent DNA ligase) (Q97QT2 whole entry): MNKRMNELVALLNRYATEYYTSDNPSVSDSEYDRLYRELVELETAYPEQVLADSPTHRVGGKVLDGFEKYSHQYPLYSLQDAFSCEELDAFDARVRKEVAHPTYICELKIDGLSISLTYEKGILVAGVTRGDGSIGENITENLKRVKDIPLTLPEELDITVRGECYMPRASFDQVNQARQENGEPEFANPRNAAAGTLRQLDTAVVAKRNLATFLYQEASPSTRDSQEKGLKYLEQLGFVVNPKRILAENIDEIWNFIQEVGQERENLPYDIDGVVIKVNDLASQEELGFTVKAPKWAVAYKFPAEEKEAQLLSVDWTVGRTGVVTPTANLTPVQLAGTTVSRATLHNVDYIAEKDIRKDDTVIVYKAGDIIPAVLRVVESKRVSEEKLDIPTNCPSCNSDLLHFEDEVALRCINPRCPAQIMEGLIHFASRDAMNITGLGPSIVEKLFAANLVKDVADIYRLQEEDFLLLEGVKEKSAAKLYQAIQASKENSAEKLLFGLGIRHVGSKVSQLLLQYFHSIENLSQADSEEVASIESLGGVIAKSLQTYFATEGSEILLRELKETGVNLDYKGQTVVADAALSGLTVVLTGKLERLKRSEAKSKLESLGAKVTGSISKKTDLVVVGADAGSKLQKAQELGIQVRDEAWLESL

For the compound `CCCc1cc(N(C)C2CCCCC2)nc2nc(N)nc(N)c12` [IV-e], in [1], the pIC50 was 4.09. For the same compound, in series [2], the “MIC S. aureus ATCC 29213” value is 32. The “MIC E. faecalis” value in series [3] was 1. For the same compound, the “MIC S. pyogenes” value in series [4] came out at 1. For the same compound, in series [5], the “MIC M. catarrhalis” value was determined as 4. In addition, the CC50 in series [6] was determined as 15.1 µM; in series [7], 9.9 µM. In [8], the “MIC E. coli ATCC 25922” value was found to be 128. Besides, the “MIC S. pneumoniae” value in series [9] is recorded as 2. In addition, in series [10], the “MIC E. coli CGSC 5633” value turned out to be 0.5.

`COc1cc(CN(C)c2cc(C)c3c(N)nc(N)nc3n2)cc(OC)c1` [IV-c]: in series [2], the “MIC S. aureus ATCC 29213” value turned out to be 32. Further, in series [3], the “MIC E. faecalis” value is on record as 0.5. Also, the “MIC S. pyogenes” value in series [4] worked out at 8. The “MIC M. catarrhalis” value in series [5] is 1. Further, the CC50 in series [6] stood at 37.4 µM; in [7], 14.6 µM. Also, in series [8], the “MIC E. coli ATCC 25922” value is recorded as 16. Also, the “MIC H. influenzae” value in [11] worked out at 32. Besides, the “MIC S. pneumoniae” value in series [9] is on record as 0.5. The “MIC E. coli CGSC 5633” value in [10] is below 0.125.

For the compound `Cc1cc(N2CCCc3ccccc32)nc2nc(N)nc(N)c12` [V-a], the “MIC S. aureus ATCC 29213” value in [2] amounted to 32. In addition, the “MIC E. faecalis” value in series [3] is below 0.125. Also, the “MIC S. pyogenes” value in series [4] amounted to 32. Moreover, the “MIC M. catarrhalis” value in series [5] is on record as 16. The results for the CC50 in [6] and in [7] were 27.1 µM and 11.5 µM, respectively. Besides, in series [8], the “MIC E. coli ATCC 25922” value came out at 64. For the same compound, the “MIC H. influenzae” value in series [11] is given as 16. In addition, the “MIC S. pneumoniae” value in series [9] is recorded as 8. Moreover, the “MIC E. coli CGSC 5633” value in series [10] was below 0.125.

For the compound `COc1cc(CN(C)c2cc(C)c3c(N)nc(N)nc3n2)cc(OC)c1OC` [IV-a], in series [1], the pIC50 is 4.82. Besides, the “MIC S. aureus ATCC 29213” value in [2] turned out to be 64. In addition, in series [3], the “MIC E. faecalis” value was found to be 2. Moreover, the “MIC S. pyogenes” value in series [4] worked out at 64. For the same compound, in series [5], the “MIC M. catarrhalis” value is on record as 16. Besides, the “MIC E. coli ATCC 25922” value in [8] is listed as 15. In [11], the “MIC H. influenzae” value was 64. In [9], the “MIC S. pneumoniae” value stood at 4. Besides, in series [10], the “MIC E. coli CGSC 5633” value is given as below 0.125.

Consider `Cc1cc(NCc2ccc(Cl)c(C(F)(F)F)c2)nc2nc(N)nc(N)c12` [III-f], for which the “MIC S. aureus ATCC 29213” value in [2] came to 8. The “MIC E. faecalis” value in [3] is on record as 1. Further, the “MIC S. pyogenes” value in [4] amounted to 2. Besides, in [5], the “MIC M. catarrhalis” value is recorded as 2. Moreover, the values for the CC50 in series [6] and in series [7] were 15.2 µM and 8.32 µM, respectively. Besides, the “MIC E. coli ATCC 25922” value in series [8] is 16. Moreover, the “MIC H. influenzae” value in series [11] amounted to 16. In series [9], the “MIC S. pneumoniae” value was 1. In [10], the “MIC E. coli CGSC 5633” value is below 0.125.

Take `CCCCc1c(NCc2ccc(F)c(F)c2)nc2nc(N)nc(N)c2c1C` [II-d]: the “MIC S. aureus ATCC 29213” value in series [2] was 4. Moreover, in series [3], the “MIC E. faecalis” value came to 2. Besides, the “MIC S. pyogenes” value in [4] came out at 2. In addition, the “MIC M. catarrhalis” value in series [5] is reported as 2. The CC50 in [6] is 17.2 µM; in series [7], 5.16 µM. Also, the “MIC E. coli ATCC 25922” value in [8] was 32. Further, the “MIC H. influenzae” value in [11] is 16. In addition, in series [9], the “MIC S. pneumoniae” value was found to be 1. Further, in series [10], the “MIC E. coli CGSC 5633” value is recorded as below 0.125.

`Cc1cc(Nc2ccc3c(c2)OCCCO3)nc2nc(N)nc(N)c12` [III-p] gave a pIC50 in series [1] of 4.94. Also, in [2], the “MIC S. aureus ATCC 29213” value came to 128. In addition, the “MIC E. faecalis” value in [3] came to 0.5. For the same compound, the “MIC M. catarrhalis” value in series [5] is given as 16. In addition, the CC50 was determined as 20 µM in series [6] and 15.6 µM in [7]. The “MIC E. coli ATCC 25922” value in series [8] was 64. Also, in series [9], the “MIC S. pneumoniae” value was 4. Further, the “MIC E. coli CGSC 5633” value in [10] is on record as 0.125.

Turning to `Cc1c(C2CCCC2)c(NCc2ccc(F)c(F)c2)nc2nc(N)nc(N)c12` [II-g], the “MIC S. aureus ATCC 29213” value in series [2] is 4. Further, the “MIC E. faecalis” value in [3] is recorded as 4. Further, the “MIC S. pyogenes” value in series [4] is on record as 4. In addition, in [5], the “MIC M. catarrhalis” value stood at 1. The results for the CC50 in [6] and in series [7] were 16.4 µM and 2.67 µM, respectively. The “MIC E. coli ATCC 25922” value in series [8] is given as above 128. The “MIC H. influenzae” value in series [11] is on record as 16. Besides, in series [9], the “MIC S. pneumoniae” value was found to be 4. The “MIC E. coli CGSC 5633” value in [10] was 2.

What is called pIC50 is the IC50 on a negative log10 scale, so that one unit is a factor of ten. As usually defined, the CC50 is the concentration at which the toxic effect on the cells reaches its halfway point.
